The test in a line: Inhibition of PI3Kdelta in Balb/c mouse splenocytes-derived B cells assessed as reduction in anti-IgM antibody-stimulated B cell proliferation after 2 days alamar blue assay. A general note: Alamar Blue is a resazurin reagent that responds to reducing activity.

Take `COc1ncc(-c2cc(OC[C@@H]3CCCN(Cc4c(C)nn(C)c4C)C3)c3cnn(C)c3n2)cc1NS(C)(=O)=O`: the IC50 (in general, the concentration that inhibits the measured activity by half) is 1.5 nM.
`COc1ncc(-c2cc(OC3CN(C(=O)C4CCOCC4)C3)c3cnn(C)c3n2)cc1NS(C)(=O)=O`: the IC50 was 20 nM.
Then `COc1ncc(-c2cc(OC[C@@H]3CCCN(Cc4cn(C)nc4C)C3)c3cnn(C)c3n2)cc1NS(C)(=O)=O`, with 4.8 nM.
Then `COc1ncc(-c2cc(OC[C@@H]3CCCN(CCC4CCOCC4)C3)c3cnn(C)c3n2)cc1NS(C)(=O)=O`, with 0.41 nM.
Then `COc1ncc(-c2cc(OC[C@@H]3CCCN(CC4(C)COC4)C3)c3cnn(C)c3n2)cc1NS(C)(=O)=O`, with 1.5 nM; and `COc1ncc(-c2cc(O[C@@H]3CCN(C(=O)C4CCOCC4)C3)c3cnn(C)c3n2)cc1NS(C)(=O)=O`, with 2.6 nM; and `COc1ncc(-c2cc(OC[C@@H]3CCCN(C(=O)C4CCN(C(C)=O)CC4)C3)c3cnn(C)c3n2)cc1NS(C)(=O)=O`, with 4.3 nM.
`COc1ncc(-c2cc(OC[C@@H]3CCCN(C(=O)C4CCOCC4)C3)c3cnn(C)c3n2)cc1NS(C)(=O)=O`: the half-maximal inhibitory concentration (IC50) came to 1.4 nM.
Then `COc1ncc(-c2cc(O[C@@H]3CCN(Cc4c(C)nn(C)c4C)C3)c3cnn(C)c3n2)cc1NS(C)(=O)=O`, with 2.1 nM; and `COc1ncc(-c2cc(OC[C@@H]3CCCN(CC4CCOCC4)C3)c3cnn(C)c3n2)cc1NS(C)(=O)=O`, with 0.29 nM.
Then `COc1ncc(-c2cc(OC[C@@H]3CCCN(C(=O)CC4CCOC4)C3)c3cnn(C)c3n2)cc1NS(C)(=O)=O` (some centres not stated), with 2.9 nM.
For `COc1ncc(-c2cc(OC[C@H]3CCCN(C(=O)C4CCOCC4)C3)c3cnn(C)c3n2)cc1NS(C)(=O)=O`, the IC50 worked out at 7.8 nM.

These data come from BindingDB's records for doi:10.1016/j.bmc.2018.06.012 (Astellas Pharma, 2018).
